# Data published in ChEMBL document CHEMBL1128963, “A non-peptide ligand for the somatostatin receptor having a benzodiazepinone structure” (Bioorg Med Chem Lett, 1996).
# Target: Somatostatin receptor
# Assay: Compound was tested for its inhibitory effect against somatostatin receptor in rat cortex membrane using [125I]Tyr3-octreotide as the radioligand
# Assay type: cell membranes
Structure (SMILES),IC50 [µM],Log Ki
C[C@H](N)C(=O)NCC(=O)N[C@@H]1CSSC[C@@H](C(=O)O)NC(=O)[C@H](CO)NC(=O)[C@@H]([C@@H](C)O)NC(=O)[C@H](Cc2ccccc2)NC(=O)[C@@H]([C@@H](C)O)NC(=O)[C@H](CCCCN)NC(=O)[C@H](Cc2c[nH]c3ccccc23)NC(=O)[C@H](Cc2ccccc2)NC(=O)[C@@H](Cc2ccccc2)NC(=O)[C@H](CC(N)=O)NC(=O)[C@@H](CCCCN)NC1=O [SOMATOSTATIN RECEPTOR LIGAND],0.00043,–
"NCCCCCN1C(=O)C(Cc2c[nH]c3ccccc23)N(C(=O)c2ccccc2)Cc2ccccc21 (single isomer, unassigned; (-))",6.5,-5.2
NCCCCCN1C(=O)C(Cc2c[nH]c3ccccc23)N(C(=O)c2ccccc2)Cc2ccccc21 (stereo in doubt; (+)2),8.2,–
NCCCCCN1C(=O)C(Cc2c[nH]c3ccccc23)N(C(=O)c2ccccc2)Cc2ccccc21 (stereo in doubt; 2),7,-5.1
